{"source": "ChEMBL document CHEMBL3885881", "about": "“DrugMatrix”", "organism": "Rattus norvegicus", "experiment": "DrugMatrix - Regimen: Daily Repeat", "type": "toxicity, organism-based, Sprague-Dawley", "set-up": "regimen Daily Repeat, gender Male, age 6-8 weeks", "conditions": "in vivo, po, 10 mg/kg, route oral GAVAGE, dose level Low, vehicle .5 % CMC; for ABSOLUTE BASOPHIL / ABSOLUTE EOSINOPHIL / ABSOLUTE LYMPHOCYTE / ABSOLUTE MONOCYTE / ABSOLUTE SEGMENTED NEUTROPHIL / BASOPHIL / EOSINOPHIL / ERYTHROCYTE COUNT / HEMATOCRIT / HEMOGLOBIN / LEUKOCYTE COUNT / LYMPHOCYTE / MEAN CORPUSCULAR HEMOGLOBIN / MEAN CORPUSCULAR HEMOGLOBIN CONCENTRATION / MEAN CORPUSCULAR VOLUME / MONOCYTE / NEUTROPHIL / NUCLEATED RED BLOOD CELLS / PLATELET COUNT: tissue Blood; for ALANINE AMINOTRANSFERASE / ALBUMIN / ALKALINE PHOSPHATASE / ASPARTATE AMINOTRANSFERASE / BLOOD UREA NITROGEN / CARBON DIOXIDE / CHLORIDE / CHOLESTEROL / CREATINE PHOSPHOKINASE / CREATININE / GLUCOSE / LACTATE DEHYDROGENASE / LIPASE / PHOSPHORUS / POTASSIUM / SODIUM / TOTAL BILIRUBIN / TOTAL PROTEIN / URIC ACID: tissue Plasma", "data": [{"smiles": "Fc1ccc(C(c2ccc(F)cc2)N2CCN(C/C=C/c3ccccc3)CC2)cc1", "note": "[FLUNARIZINE]", "values": [{"measurement": "ABSOLUTE BASOPHIL", "setting": "72 h, time 3 day", "result": 0, "unit": "CELLS/uL"}, {"measurement": "ABSOLUTE EOSINOPHIL", "setting": "72 h, time 3 day", "result": 0, "unit": "CELLS/uL"}, {"measurement": "ABSOLUTE LYMPHOCYTE", "setting": "72 h, time 3 day", "result": 15150, "unit": "CELLS/uL"}, {"measurement": "ABSOLUTE MONOCYTE", "setting": "72 h, time 3 day", "result": 74.33, "unit": "CELLS/uL"}, {"measurement": "ABSOLUTE SEGMENTED NEUTROPHIL", "setting": "72 h, time 3 day", "result": 1309, "unit": "CELLS/uL"}, {"measurement": "BASOPHIL", "setting": "72 h, time 3 day", "result": 0, "unit": "%"}, {"measurement": "EOSINOPHIL", "setting": "72 h, time 3 day", "result": 0, "unit": "%"}, {"measurement": "ERYTHROCYTE COUNT", "setting": "72 h, time 3 day", "result": 6.09, "unit": "x10E6/uL"}, {"measurement": "HEMATOCRIT", "setting": "72 h, time 3 day", "result": 37.17, "unit": "%"}, {"measurement": "HEMOGLOBIN", "setting": "72 h, time 3 day", "result": 14.73, "unit": "G/DL"}, {"measurement": "LEUKOCYTE COUNT", "setting": "72 h, time 3 day", "result": 16.53, "unit": "x10E3/uL"}, {"measurement": "LYMPHOCYTE", "setting": "72 h, time 3 day", "result": 91.33, "unit": "%"}, {"measurement": "MEAN CORPUSCULAR HEMOGLOBIN", "setting": "72 h, time 3 day", "result": 24.2, "unit": "pg"}, {"measurement": "MEAN CORPUSCULAR HEMOGLOBIN CONCENTRATION", "setting": "72 h, time 3 day", "result": 39.67, "unit": "G/DL"}, {"measurement": "MEAN CORPUSCULAR VOLUME", "setting": "72 h, time 3 day", "result": 61.03, "unit": "fL"}, {"measurement": "MONOCYTE", "setting": "72 h, time 3 day", "result": 0.33, "unit": "%"}, {"measurement": "NEUTROPHIL", "setting": "72 h, time 3 day", "result": 8.33, "unit": "%"}, {"measurement": "NUCLEATED RED BLOOD CELLS", "setting": "72 h, time 3 day", "result": "0.33 /100WBC"}, {"measurement": "PLATELET COUNT", "setting": "72 h, time 3 day", "result": 1291, "unit": "x10E3/uL"}, {"measurement": "ALANINE AMINOTRANSFERASE", "setting": "72 h, time 3 day", "result": 42.67, "unit": "u/L"}, {"measurement": "ALBUMIN", "setting": "72 h, time 3 day", "result": 4.7, "unit": "G/DL"}, {"measurement": "ALKALINE PHOSPHATASE", "setting": "72 h, time 3 day", "result": 347.33, "unit": "u/L"}, {"measurement": "ASPARTATE AMINOTRANSFERASE", "setting": "72 h, time 3 day", "result": 90.33, "unit": "u/L"}, {"measurement": "BLOOD UREA NITROGEN", "setting": "72 h, time 3 day", "result": 18, "unit": "mg/dL"}, {"measurement": "CARBON DIOXIDE", "setting": "72 h, time 3 day", "result": 20, "unit": "mmol/L"}, {"measurement": "CHLORIDE", "setting": "72 h, time 3 day", "result": 101, "unit": "MEQ/L"}, {"measurement": "CHOLESTEROL", "setting": "72 h, time 3 day", "result": 87.67, "unit": "mg/dL"}, {"measurement": "CREATINE PHOSPHOKINASE", "setting": "72 h, time 3 day", "result": 406.67, "unit": "u/L"}, {"measurement": "CREATININE", "setting": "72 h, time 3 day", "result": 0.23, "unit": "mg/dL"}, {"measurement": "GLUCOSE", "setting": "72 h, time 3 day", "result": 149, "unit": "mg/dL"}, {"measurement": "LACTATE DEHYDROGENASE", "setting": "72 h, time 3 day", "result": 371.67, "unit": "u/L"}, {"measurement": "LIPASE", "setting": "72 h, time 3 day", "result": 9, "unit": "u/L"}, {"measurement": "PHOSPHORUS", "setting": "72 h, time 3 day", "result": 12.27, "unit": "mg/dL"}, {"measurement": "POTASSIUM", "setting": "72 h, time 3 day", "result": 6.75, "unit": "MEQ/L"}, {"measurement": "SODIUM", "setting": "72 h, time 3 day", "result": 143.6, "unit": "MEQ/L"}, {"measurement": "TOTAL BILIRUBIN", "setting": "72 h, time 3 day", "result": 0.2, "unit": "mg/dL"}, {"measurement": "TOTAL PROTEIN", "setting": "72 h, time 3 day", "result": 6.57, "unit": "G/DL"}, {"measurement": "URIC ACID", "setting": "72 h, time 3 day", "result": 1.67, "unit": "mg/dL"}, {"measurement": "ABSOLUTE BASOPHIL", "setting": "120 h, time 5 day", "result": 0, "unit": "CELLS/uL"}, {"measurement": "ABSOLUTE EOSINOPHIL", "setting": "120 h, time 5 day", "result": 122, "unit": "CELLS/uL"}, {"measurement": "ABSOLUTE LYMPHOCYTE", "setting": "120 h, time 5 day", "result": 14703, "unit": "CELLS/uL"}, {"measurement": "ABSOLUTE MONOCYTE", "setting": "120 h, time 5 day", "result": 297.33, "unit": "CELLS/uL"}, {"measurement": "ABSOLUTE SEGMENTED NEUTROPHIL", "setting": "120 h, time 5 day", "result": 711, "unit": "CELLS/uL"}, {"measurement": "BASOPHIL", "setting": "120 h, time 5 day", "result": 0, "unit": "%"}, {"measurement": "EOSINOPHIL", "setting": "120 h, time 5 day", "result": 0.67, "unit": "%"}, {"measurement": "ERYTHROCYTE COUNT", "setting": "120 h, time 5 day", "result": 5.61, "unit": "x10E6/uL"}, {"measurement": "HEMATOCRIT", "setting": "120 h, time 5 day", "result": 36.03, "unit": "%"}, {"measurement": "HEMOGLOBIN", "setting": "120 h, time 5 day", "result": 14.1, "unit": "G/DL"}, {"measurement": "LEUKOCYTE COUNT", "setting": "120 h, time 5 day", "result": 15.83, "unit": "x10E3/uL"}, {"measurement": "LYMPHOCYTE", "setting": "120 h, time 5 day", "result": 93, "unit": "%"}, {"measurement": "MEAN CORPUSCULAR HEMOGLOBIN", "setting": "120 h, time 5 day", "result": 25.13, "unit": "pg"}, {"measurement": "MEAN CORPUSCULAR HEMOGLOBIN CONCENTRATION", "setting": "120 h, time 5 day", "result": 39.17, "unit": "G/DL"}, {"measurement": "MEAN CORPUSCULAR VOLUME", "setting": "120 h, time 5 day", "result": 64.2, "unit": "fL"}, {"measurement": "MONOCYTE", "setting": "120 h, time 5 day", "result": 2, "unit": "%"}, {"measurement": "NEUTROPHIL", "setting": "120 h, time 5 day", "result": 4.33, "unit": "%"}, {"measurement": "NUCLEATED RED BLOOD CELLS", "setting": "120 h, time 5 day", "result": "0 /100WBC"}, {"measurement": "PLATELET COUNT", "setting": "120 h, time 5 day", "result": 1316, "unit": "x10E3/uL"}, {"measurement": "ALANINE AMINOTRANSFERASE", "setting": "120 h, time 5 day", "result": 52, "unit": "u/L"}, {"measurement": "ALBUMIN", "setting": "120 h, time 5 day", "result": 4.43, "unit": "G/DL"}, {"measurement": "ALKALINE PHOSPHATASE", "setting": "120 h, time 5 day", "result": 419, "unit": "u/L"}, {"measurement": "ASPARTATE AMINOTRANSFERASE", "setting": "120 h, time 5 day", "result": 84.33, "unit": "u/L"}, {"measurement": "BLOOD UREA NITROGEN", "setting": "120 h, time 5 day", "result": 14.67, "unit": "mg/dL"}, {"measurement": "CARBON DIOXIDE", "setting": "120 h, time 5 day", "result": 24, "unit": "mmol/L"}, {"measurement": "CHLORIDE", "setting": "120 h, time 5 day", "result": 103.67, "unit": "MEQ/L"}, {"measurement": "CHOLESTEROL", "setting": "120 h, time 5 day", "result": 74.33, "unit": "mg/dL"}, {"measurement": "CREATINE PHOSPHOKINASE", "setting": "120 h, time 5 day", "result": 286, "unit": "u/L"}, {"measurement": "CREATININE", "setting": "120 h, time 5 day", "result": 0.11, "unit": "mg/dL"}, {"measurement": "GLUCOSE", "setting": "120 h, time 5 day", "result": 150.67, "unit": "mg/dL"}, {"measurement": "LACTATE DEHYDROGENASE", "setting": "120 h, time 5 day", "result": 187.33, "unit": "u/L"}, {"measurement": "LIPASE", "setting": "120 h, time 5 day", "result": 8.67, "unit": "u/L"}, {"measurement": "PHOSPHORUS", "setting": "120 h, time 5 day", "result": 14.07, "unit": "mg/dL"}, {"measurement": "POTASSIUM", "setting": "120 h, time 5 day", "result": 6.62, "unit": "MEQ/L"}, {"measurement": "SODIUM", "setting": "120 h, time 5 day", "result": 147.27, "unit": "MEQ/L"}, {"measurement": "TOTAL BILIRUBIN", "setting": "120 h, time 5 day", "result": 0.2, "unit": "mg/dL"}, {"measurement": "TOTAL PROTEIN", "setting": "120 h, time 5 day", "result": 6.03, "unit": "G/DL"}, {"measurement": "URIC ACID", "setting": "120 h, time 5 day", "result": 1.67, "unit": "mg/dL"}]}]}
